In US9718790B2, “Triazine derivative and pharmaceutical composition having an analgesic activity comprising the same” (SHIONOGI & CO., LTD., priority 2010, dated 2017):
pIC50: −log10 of the molar value.

target: human P2X3 receptor (Homo sapiens (Human), UniProt P56373); experiment: Evaluation of human P2X3 receptor inhibitory activity (Fluo-3 calcium fluorescence, FDSS 3000, ATP stimulation); type: cell-based; conditions: C6BU-1 cells stably expressing human P2X3 receptor;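 further: stimulus was 50 nM ATP with fluorescence followed for 3 min, and the response per well was peak post-ATP fluorescence divided by the reading at measurement start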
Sequence (P56373 whole entry): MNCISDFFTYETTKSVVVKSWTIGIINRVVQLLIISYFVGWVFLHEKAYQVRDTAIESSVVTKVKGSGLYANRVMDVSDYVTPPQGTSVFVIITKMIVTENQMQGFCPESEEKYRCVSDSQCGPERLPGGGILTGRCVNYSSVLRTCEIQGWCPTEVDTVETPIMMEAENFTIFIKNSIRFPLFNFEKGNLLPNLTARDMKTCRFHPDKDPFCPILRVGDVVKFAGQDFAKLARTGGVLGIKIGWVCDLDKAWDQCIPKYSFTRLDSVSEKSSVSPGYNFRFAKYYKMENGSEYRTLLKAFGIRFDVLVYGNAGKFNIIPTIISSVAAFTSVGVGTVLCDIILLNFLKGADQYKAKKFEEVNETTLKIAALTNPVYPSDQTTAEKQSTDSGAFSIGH

Row | Structure (SMILES) | pIC50
1 | CCn1c(=O)[nH]/c(=N\c2ccc(Oc3cc(F)cc(C(=O)OC)c3)cc2)n(Cc2ccc(Cl)cc2)c1=O [Compound I-2219] | 7.85
2 | Cc1ccc(Cn2c(=O)n([C@@H](C)[C@@H](C)C(=O)O)c(=O)[nH]/c2=N\c2ccc(OC(C)C)c(Br)c2)cc1 [Compound I-1334] | 7.96
3 | COC(=O)C(C)(C)n1c(=O)[nH]/c(=N\c2ccc(OC(C)C)c(Cl)c2)n(Cc2ccc(Cl)cc2)c1=O [Compound I-0640] | 8.30
4 | COC(=O)[C@@H](C)Cn1c(=O)[nH]/c(=N\c2ccc(OC(C)C)c(Cl)c2)n(Cc2ccc(F)cc2)c1=O [Compound I-0626] | 7.66
5 | COC(=O)[C@@H](C)Cn1c(=O)[nH]/c(=N\c2ccc(CC(C)C)c(Cl)c2)n(Cc2ccc(C)cc2)c1=O [Compound I-1371] | 8.05
6 | CC(C)Oc1ccc(/N=c2\[nH]c(=O)n([C@H](C)[C@H](C)C(=O)O)c(=O)n2Cc2ccc(Cl)cc2)cc1F [Compound I-1343] | 7.46
7 | Cc1cc2cc(/N=c3\[nH]c(=O)n(C[C@H](C)C(=O)O)c(=O)n3Cc3ccc(Cl)cc3)ccc2[nH]1 [Compound I-0697] | 7.24
8 | CCOC(=O)CCn1c(=O)[nH]/c(=N\c2ccc(OC(C)C)c(F)c2)n(CC2CCCCCCC2)c1=O [Compound I-1911] | 6.60
9 | COC(=O)[C@@H](C)Cn1c(=O)[nH]/c(=N\c2ccc(OC)c(C(F)(F)F)c2)n(Cc2ccc(Cl)cc2)c1=O [Compound I-0796] | 6.41
10 | CC(C)Oc1ccc(/N=c2\[nH]c(=O)n(CCCCC(=O)O)c(=O)n2Cc2ccc(Cl)cc2)cc1Cl [Compound I-2184] | 8.00
11 | COC(=O)[C@@H](C)[C@@H](C)n1c(=O)[nH]/c(=N\c2ccc(OC(C)C)c(F)c2)n(Cc2ccc(Cl)cc2)c1=O [Compound I-1315] | 7.40
12 | CCn1c(=O)[nH]/c(=N\c2ccc(OCCN(C)C(C)=O)cc2)n(Cc2ccc(Cl)cc2)c1=O [Compound I-2197] | 6.67
13 | CC(C)COc1ccc(/N=c2\[nH]c(=O)n([C@@H](C)[C@@H](C)C(=O)O)c(=O)n2Cc2ccc(Cl)cc2)cc1 [Compound I-1386] | 7.55
14 | Cc1ccc(Cn2c(=O)n(C[C@H](C)C(=O)O)c(=O)[nH]/c2=N\c2ccc3nc(C)sc3c2)cc1 [Compound I-1473] | 7.92
15 | Cc1ccc(Cn2c(=O)n([C@H](C)[C@H](C)C(=O)O)c(=O)[nH]/c2=N\c2ccc(OCC3CC3)cc2)cc1 [Compound I-1341] | 7.44
16 | Cc1nc2ccc(/N=c3\[nH]c(=O)n(C[C@H](O)CO)c(=O)n3CC3CCC(C)CC3)cc2s1 (stereo partly shown) [Compound I-2097] | 8.30
17 | COc1ncccc1Cn1c(=O)[nH]/c(=N\c2ccc(OC(C)C)c(F)c2)n(Cc2ccc(Cl)cc2)c1=O [Compound I-0683] | 8.05
18 | CCOC(=O)CCn1c(=O)[nH]/c(=N\c2ccc(OC3CCC3)c(Cl)c2)n(Cc2ccc(Cl)cc2)c1=O [Compound I-1330] | 8.05
19 | COC(=O)[C@H](C)[C@H](C)n1c(=O)[nH]/c(=N\c2ccc(OCC(C)C)cc2)n(Cc2ccc(Cl)cc2)c1=O [Compound I-1329] | 7.31
20 | CC(C)Oc1ccc(/N=c2\[nH]c(=O)n(C[C@H](C)C(=O)O)c(=O)n2Cc2ccccc2)cc1Cl [Compound I-0794] | 6.77
21 | Cc1[nH]c2ccc(/N=c3\[nH]c(=O)n(CCC(=O)O)c(=O)n3Cc3ccc(Cl)cc3)cc2c1C [Compound I-1950] | 7.54

same assay, conditions: C6BU-1 cells stably expressing human P2X3 receptor, Fluo-3 fluorescence, FDSS 3000

Row | Structure (SMILES) | pIC50
22 | CC[C@@H](C)Oc1ccc(/N=c2\[nH]c(=O)n(CCC(=O)O)c(=O)n2Cc2ccc(C)cc2)cc1C [Compound I-1029] | 7.46
23 | COC(=O)[C@H](C)[C@H](C)n1c(=O)[nH]/c(=N\c2ccc3oc4ccccc4c3c2)n(Cc2ccc(Cl)cc2)c1=O [Compound I-1827] | 6.04
24 | CCC[C@H](C)Oc1ccc(/N=c2\[nH]c(=O)n(CCC(=O)O)c(=O)n2Cc2ccc(C)cc2)cc1 [Compound I-1067] | 7.03
25 | CCc1oc2ccc(/N=c3\[nH]c(=O)n(CC(N)=O)c(=O)n3Cc3ccc(Cl)cc3)cc2c1C [Compound I-1656] | 8.15
26 | CCOC(=O)CCn1c(=O)[nH]/c(=N\c2ccc(Oc3ccc(F)cc3)cc2)n(Cc2ccc(Cl)cc2)c1=O [Compound I-1872] | 7.82
27 | Cc1[nH]c2ccc(/N=c3\[nH]c(=O)n([C@@H](C)[C@@H](C)C(=O)O)c(=O)n3Cc3ccc(Cl)cc3)cc2c1C [Compound I-1771] | 7.85
28 | COc1ccc(Oc2ccc(/N=c3\[nH]c(=O)n(CC(=O)NCCO)c(=O)n3Cc3ccc(Cl)cc3)cc2)cn1 [Compound I-1858] | 8.30
29 | COC(=O)[C@H](C)[C@H](C)n1c(=O)[nH]/c(=N\c2ccc(OCC3CC3)cc2)n(Cc2ccc(C)cc2)c1=O [Compound I-0965] | 7.68
30 | CCCOc1ccc(/N=c2\[nH]c(=O)n(CC3(C(=O)O)CC3)c(=O)n2Cc2ccc(Cl)cc2)cc1 [Compound I-0925] | 7.23
31 | COC(=O)[C@@H](C)Cn1c(=O)nc(Cc2ccc(OC)c(F)c2)n(Cc2ccc(Cl)cc2)c1=O [Compound I-1869] | 6.48
32 | O=c1[nH]/c(=N\c2ccc(OCC3CC3)cc2)n(Cc2ccc(Cl)cc2)c(=O)n1C[C@H](O)CO [Compound I-1855] | 7.68
33 | C[C@@H](C(=O)O)[C@H](C)n1c(=O)[nH]/c(=N\c2ccc3oc(-c4ccncc4)nc3c2)n(Cc2ccc(Cl)cc2)c1=O [Compound I-1816] | 6.52
34 | Cc1nc2ccc(/N=c3\[nH]c(=O)n(CC4(C)COC(C)(C)OC4)c(=O)n3Cc3ccc(Cl)cc3)cc2s1 [Compound I-1635] | 8.30
35 | CCc1nc2ccc(/N=c3\[nH]c(=O)n(CC)c(=O)n3Cc3ccc(Cl)cc3)cc2s1 [Compound I-1703] | 8.40
36 | CC(C)Oc1ccc(/N=c2\[nH]c(=O)n(CCC(=O)O)c(=O)n2CC2C[C@H]3CC[C@@H]2C3)cc1F (stereo partly shown) [Compound I-1862] | 6.26
37 | CCn1c(=O)[nH]/c(=N\c2ccc(Oc3cc(OC)ncn3)cc2)n(Cc2ccc(Cl)cc2)c1=O [Compound I-1859] | 8.30
38 | COC(=O)[C@@H](C)Cn1c(=O)[nH]/c(=N\c2cccc(C3=CCCC3)c2)n(Cc2ccc(C)cc2)c1=O [Compound I-1084] | 6.41
39 | C=Cc1ccc(Cn2c(=O)n(C[C@H](C)C(=O)OC)c(=O)[nH]/c2=N\c2ccc(OC(C)C)cc2)cc1 [Compound I-1131] | 6.98
40 | Cc1ccc(Cn2c(=O)n(C[C@H](C)C(=O)O)c(=O)[nH]/c2=N\c2ccc(CC(C)C)c(C)c2)cc1 [Compound I-1044] | 7.72
41 | CCn1c(=O)[nH]/c(=N\c2ccc(Oc3ccc(NC(C)=O)cc3)cc2)n(Cc2ccc(Cl)cc2)c1=O [Compound I-1871] | 8.22
42 | Cc1nc2ccc(/N=c3\[nH]c(=O)n(C[C@H]4COC(C)(C)O4)c(=O)n3Cc3ccc(Cl)cc3)cc2s1 [Compound I-1603] | 8.30
43 | CCOc1ccc(/N=c2\[nH]c(=O)n(CC3(C(=O)O)CC3)c(=O)n2Cc2ccc(Cl)cc2)cc1Cl [Compound I-0924] | 7.52

same assay, conditions: human P2X3 receptor, Test Example 1

Row | Structure (SMILES) | pIC50
44 | COC(=O)[C@@H](C)Cn1c(=O)[nH]/c(=N\c2ccc(C)c(C(F)(F)F)c2)n(Cc2ccc(Cl)cc2)c1=O [Compound I-0841] | 6.82
45 | CCn1c(=O)[nH]/c(=N\c2ccc3nc(Cl)sc3c2)n(Cc2ccc(Cl)cc2)c1=O [Compound I-2321] | 7.96
46 | COC(=O)[C@@H](C)Cn1c(=O)[nH]/c(=N\c2ccc(C3CC3)c(Cl)c2)n(Cc2ccc(C)cc2)c1=O [Compound I-1487] | 6.97
47 | COC(=O)CCn1c(=O)[nH]/c(=N\c2ccc(Oc3cc(C#N)ccn3)cc2)n(Cc2ccc(C)cc2)c1=O [Compound I-2660] | 8.52
48 | Cc1ccc(Cn2c(=O)n(CCC(=O)O)c(=O)[nH]/c2=N\c2ccc(Oc3ncccn3)cc2)cc1 [Compound I-2558] | 7.66
49 | CC(CO)(CO)Cn1c(=O)[nH]/c(=N\c2ccc(Oc3ccon3)c(F)c2)n(Cc2ccc(F)cc2)c1=O [Compound I-2574] | 7.96
50 | Cc1ccc(Cn2c(=O)n(C)c(=O)[nH]/c2=N\c2ccc(Oc3cc(C#N)ccn3)cc2)cc1 [Compound I-2340] | 7.89
51 | CC(C)Oc1ccc(/N=c2\ncn(C(C)C)c(=O)n2Cc2ccc(Cl)cc2)cc1 [Compound I-2276, (E)-3-(4-chlorobenzyl)-4-(4-isopropoxyphenylimino)-1-isopropyl-3,4-dihydro-1,3,5-triazine-2(1H)-one] | 6.11
52 | CCOC(=O)CCn1c(=O)[nH]/c(=N\c2ccc(OCC)c(Cl)c2)n(Cc2ccc(C)cc2)c1=O [Compound I-0867] | 8.22
53 | CCn1c(=O)[nH]/c(=N\c2ccc(Oc3cncc(C(=O)OC)n3)cc2)n(Cc2ccc(C)cc2)c1=O [Compound I-2467] | 8.15
54 | CNC(=O)c1cc(Oc2ccc(/N=c3\[nH]c(=O)n(C4CC4)c(=O)n3Cc3ccc(Cl)cc3)cc2)ccn1 [Compound I-2309] | 8.70
55 | CNC(=O)Nc1cc(Oc2ccc(/N=c3\[nH]c(=O)n(C)c(=O)n3Cc3ccc(Cl)cc3)cc2)ccn1 [Compound I-2656] | 8.22
56 | C[C@H](CO)n1c(=O)[nH]/c(=N\c2ccc(Oc3ccon3)cc2)n(Cc2ccc(Cl)cc2)c1=O [Compound I-2488] | 7.43
57 | CCOC(=O)CCn1c(=O)[nH]/c(=N\c2ccc3nc(CC)sc3c2)n(Cc2ccc(Cl)cc2)c1=O [Compound I-1505] | 8.40
58 | CC[C@@H](C)n1c(=O)[nH]/c(=N\c2ccc(Oc3ccnc(C(=O)O)c3)cc2)n(Cc2ccc(Cl)cc2)c1=O [Compound I-2482] | 7.96
59 | CCn1c(=O)[nH]/c(=N\c2ccc(Oc3ncc(C(=O)O)s3)cc2)n(Cc2ccc(F)cc2)c1=O [Compound I-2567] | 7.42
60 | O=C(O)CCn1c(=O)[nH]/c(=N\c2ccc(Oc3ncns3)cc2)n(Cc2ccc(Cl)cc2)c1=O [Compound I-2698] | 7.60
61 | O=c1[nH]/c(=N\c2ccc(Oc3ccsn3)cc2)n(Cc2ccc(Cl)cc2)c(=O)n1C[C@H](O)CO [Compound I-2530] | 7.80
62 | CCn1c(=O)[nH]/c(=N\c2ccc(Oc3ccnc(C(=O)OC)c3)cc2)n(Cc2ccc(F)cc2)c1=O [Compound I-2359] | 7.59
63 | CCn1c(=O)[nH]/c(=N\c2ccc(Oc3ccsn3)cc2)n(C[C@H]2CC[C@H](C)CC2)c1=O [Compound I-2350] | 8.70
64 | O=c1[nH]/c(=N\c2ccc(Oc3ccnc(Cl)c3)cc2)n(Cc2ccc(Cl)cc2)c(=O)n1CC(CO)CO [Compound I-2704] | 8.40
